From ChEMBL document CHEMBL1255518, “Novel pyrrole- and 1,2,3-triazole-based 2,3-oxidosqualene cyclase inhibitors” (Bioorg Med Chem Lett, 2010)

How the values were obtained:
Lanosterol synthase = target: T1, Lanosterol synthase (Homo sapiens, UniProt P48449); experiment: Inhibition of OSC
T1 sequence (P48449 whole entry): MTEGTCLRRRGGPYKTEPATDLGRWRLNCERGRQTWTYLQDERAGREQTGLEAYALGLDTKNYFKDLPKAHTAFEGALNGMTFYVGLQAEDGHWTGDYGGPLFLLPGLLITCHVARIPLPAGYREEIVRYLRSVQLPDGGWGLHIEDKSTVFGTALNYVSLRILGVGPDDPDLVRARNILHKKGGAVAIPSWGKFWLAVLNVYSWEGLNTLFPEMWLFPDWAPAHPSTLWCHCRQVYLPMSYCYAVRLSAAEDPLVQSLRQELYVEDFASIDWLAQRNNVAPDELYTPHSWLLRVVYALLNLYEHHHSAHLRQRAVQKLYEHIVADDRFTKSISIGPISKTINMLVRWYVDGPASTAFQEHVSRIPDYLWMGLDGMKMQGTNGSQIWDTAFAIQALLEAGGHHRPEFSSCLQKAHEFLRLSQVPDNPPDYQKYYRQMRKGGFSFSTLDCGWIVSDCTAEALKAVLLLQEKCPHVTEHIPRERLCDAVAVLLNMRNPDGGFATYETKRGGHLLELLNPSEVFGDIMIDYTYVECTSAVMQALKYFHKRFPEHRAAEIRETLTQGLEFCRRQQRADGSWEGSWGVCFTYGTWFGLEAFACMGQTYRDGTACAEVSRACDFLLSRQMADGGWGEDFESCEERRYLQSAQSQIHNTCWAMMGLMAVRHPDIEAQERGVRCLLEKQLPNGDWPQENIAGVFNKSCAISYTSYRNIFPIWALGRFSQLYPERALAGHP

[1] = target: T2, Lanosterol synthase (Homo sapiens) (UniProt P48449); experiment: Inhibition of OSC at 20 uM
T2 sequence (whole entry): T1 sequence (P48449 whole entry)

| Compound | IC50 (Lanosterol synthase) | inhibition [1] |
| --- | --- | --- |
| COc1ccc(-n2c(C)cc(C(=O)NCc3ccc(CN(C)C)cc3)c2C)cc1 | 35.4 µM |  |
| CCCCCCCCCCCC[N+](C)(C)[O-] | 2.15 µM | 84% |
| CN(C)Cc1ccc(CNCc2cnn(-c3ccccc3)n2)cc1 | 1.41 µM | 128% |
| COc1ccc(-n2c(C)cc(CNC(=O)c3ccc(CN(C)C)cc3)c2C)cc1 | 58.8 µM |  |
| COc1ccc(-n2c(C)cc(CNCc3ccc(CN(C)C)cc3)c2C)cc1 | 12.7 µM | 86% |
